PMC12040169 (PLOS Biology, 2025)

Assay: in vitro
Settings: human, hela cells, % viability

Structure (SMILES)	viability at 28.5 h, 10 µM
COc1ccc(NC(=O)CSc2nc3c(c(-c4cccs4)c2C#N)CN(C)CC3)cc1OC [CBK267444]	103%
CN1CCc2nc(SCC(=O)NC(C)(C)C)c(C#N)cc2C1 [CBK267445]	87.4%
CN1CCc2nc(SCC(=O)c3ccc(-c4ccccc4)cc3)c(C#N)c(-c3cccs3)c2C1 [CBK267447]	88.3%
CC1=C(C(=O)Nc2ccccc2)C(c2ccccc2)C(C#N)=C(SCc2ccncc2)N1 (stereo not drawn) [CBK267448]	90.2%
CC(C)CC1C(C#N)=C(N)Oc2[nH]nc(-c3cccs3)c21 (stereo not drawn) [CBK267449]	104%
N#Cc1c(SCC(=O)N2CCc3ccccc3C2)nsc1SCC(=O)N1CCc2ccccc2C1 [CBK267453]	93.6%
CCOC(=O)CC(=O)CSc1nc(-c2cccnc2)ccc1C#N [CBK267456]	89.6%
CSc1nc(N)nc2sc3c(O)cc(=O)[nH]c3c12 [CBK267457]	105%
Nc1cc(N)nc(SCc2cccnc2)n1 [CBK267459]	97.5%
CSc1nc(N)nc(SC(C(=O)O)c2ccccc2)c1C#N (stereo not drawn) [CBK267461]	93.4%
CN1CCc2nc(SCc3cccnc3)c(C#N)cc2C1 [CBK267463]	87.4%
CN(C)S(=O)(=O)N1CCN(C(=O)N(c2ccccc2)c2ccccc2)CC1 [CBK267466]	96.7%
O=C(c1cccc(Br)c1)N1CCN(S(=O)(=O)N2CCOCC2)CC1 [CBK267470]	93.2%
O=C(CCc1ccccc1)NC(=S)Nc1ccc(-c2nc3ccccc3[nH]2)cc1 [CBK267472]	77.1%
COC(=O)C1=C(C)N(CCc2ccccc2)C(=O)C1(NC(=O)c1ccccc1)C(F)(F)F (stereo not drawn) [CBK267477]	86%
Cn1ncc(C#N)c1NC(=O)C1CC(c2ccc(Cl)c(Cl)c2)=NO1 (stereo not drawn) [CBK267478]	93.7%
O=C(NCCN1CCOCC1)c1cc(-c2ccccc2)on1 [CBK267479]	89.5%
O=C(NC1(C(F)(F)F)NC(=O)N(CCc2ccccc2)C1=O)c1ccco1 (stereo not drawn) [CBK267482]	89.2%
O=C(CSc1nnc(-c2cccs2)n1-c1ccccc1)Nc1ccnc2ccccc12 [CBK267487]	94.4%
Cc1ccc([N+](=O)[O-])cc1NC(=O)CSC1=NCCS1 [CBK267489]	88.6%
CCn1cc(C(=O)O)c(=O)c2cc(F)c(N3CCN(C(=S)NC(=O)c4c(-c5ccccc5)noc4C)CC3)cc21 [CBK267490]	86.8%

Structure (SMILES)	viability at 28.5 h, 10 µM
CCn1cc(C(=O)O)c(=O)c2cnc(N3CCN(C(=S)NC(=O)c4c(-c5ccccc5)noc4C)CC3)nc21 [CBK267491]	85%
Cc1onc(-c2ccccc2)c1C(=O)NC(=S)Nc1sc2c(c1C#N)CCC2 [CBK267492]	89.1%
Cc1onc(-c2ccccc2)c1C(=O)NNC(=S)NC(=O)c1ccc(Cl)cc1 [CBK267493]	91.1%
CC(C)(C)c1ccc(COn2c(=O)c(-c3ccccc3Cl)[n+]([O-])c3ccccc32)cc1 [CBK267494]	101%
COc1ccc(CCNc2nc3c(c(=O)n(C)c(=O)n3C)n2Cc2ccccc2Br)cc1OC [CBK267495]	96.7%
COCc1ccccc1Cn1cnc2ccccc21 [CBK267496]	100%
O=C(CC1C(=O)N(c2cccc(Cl)c2)C(=O)N1CCc1cccs1)Nc1ccccc1 (stereo not drawn) [CBK267499]	79.7%
O=C1CC(SCCc2nc3ccccc3[nH]2)C(=O)N1c1ccc(F)cc1 (stereo not drawn) [CBK267500]	88.8%
CS(=O)(=O)N(CC(=O)Nc1ccc2ccccc2c1)c1ccc(Cl)cc1Cl [CBK267501]	87.6%
O=[N+]([O-])c1ccc(S(=O)(=O)NCCSCc2ccco2)cc1 [CBK267503]	94.1%
Cc1ccc(SCCNS(=O)(=O)c2ccc3ccccc3c2)cc1 [CBK267504]	88%
O=C(CN1C(=O)c2ccc(Br)cc2C1=O)OCc1ccc(S(=O)(=O)N2CCOCC2)cc1 [CBK267505]	84.6%
CN(c1cccc(NS(=O)(=O)c2ccc3ccccc3c2)c1)S(C)(=O)=O [CBK267507]	85.7%
COc1ccc(C)cc1S(=O)(=O)N(C)CC(=O)Nc1cccc(SC)c1 [CBK267510]	101%
CCN1CCN(c2cc(N3CCN(C(=O)COc4ccccc4F)C(C)C3)c([N+](=O)[O-])cc2F)CC1 (stereo not drawn) [CBK267513]	100%
CC(NC(=O)CSc1ncc(-c2ccccc2)nn1)c1ccccc1 (stereo not drawn) [CBK267514]	85.7%
Cn1c2ccccc2c2nnc(SCc3ccc4nonc4c3)nc21 [CBK267515]	89.9%
c1ccc(Cn2c3ccccc3c3nnc(SCc4ccc5nonc5c4)nc32)cc1 [CBK267517]	91.5%
O=C(O)CCc1nn2c3ccccc3n(CCN3CCCCC3)c2nc1=O [CBK267519]	97.5%
Cc1ccc(C(=O)NC(=O)CSc2nc(N)n[nH]2)cc1 [CBK267523]	90.9%
O=C(CC(C(=O)O)n1cnc([N+](=O)[O-])n1)c1ccc(Br)cc1 (stereo not drawn) [CBK267524]	89%

Structure (SMILES)	viability at 28.5 h, 10 µM
N#CCCSc1nnc(-c2cccnc2)n1Cc1ccccc1 [CBK267526]	100%
O=C(CSc1nnc(-c2cccnc2)n1Cc1ccccc1)Nc1ccc(F)cc1 [CBK267528]	96.8%
CCn1c(Cc2c(C)[nH]c3ccccc23)nnc1SCC(=O)NC12CC3CC(CC(C3)C1)C2 [CBK267529]	89.3%
COCCSc1ccccc1C(=O)Nc1ccc(S(N)(=O)=O)cc1 [CBK267530]	83.2%
Cc1ccc(N2CC(C(=O)Nc3ccc(S(=O)(=O)NCC4CCCO4)cc3)CC2=O)cc1 (stereo not drawn) [CBK267532]	91.7%
Cc1c(C(=O)Nc2ccc(S(=O)(=O)NCC3CCCO3)cc2)cccc1[N+](=O)[O-] (stereo not drawn) [CBK267533]	94.5%
COCCSc1nnc(NS(=O)(=O)Cc2ccccc2)s1 [CBK267535]	97.6%
COc1ccc(C)cc1NC(=O)CSc1nnc(-c2ccccc2Cl)n1-c1ccccc1 [CBK267538]	82.9%
O=C(CSc1nnc(-c2cccnc2)n1-c1ccccc1)Nc1cc(C(F)(F)F)ccc1Cl [CBK267540]	90.8%
O=C(CCc1ccccc1)NNC(=O)C1C2C=CC(C2)C1C(=O)O (stereo not drawn) [CBK267541]	94.2%
O=C(CSC1c2ccccc2Sc2ccccc21)Nc1ccc(C(=O)O)cc1 [CBK267542]	111%
O=C(O)CCC(=O)N1N=C(c2c(-c3ccccc3)c3cc(Br)ccc3[nH]c2=O)CC1c1ccc([N+](=O)[O-])cc1 (stereo not drawn) [CBK267543]	104%
Cc1ccc2nc(O)c(C3=NN(C(=O)CCC(=O)O)C(c4ccco4)C3)c(-c3ccccc3)c2c1 (stereo not drawn) [CBK267544]	91%
CS(=O)(=O)Nc1ccc(C2=NN(S(C)(=O)=O)C(c3ccc4nccnc4c3)C2)cc1 (stereo not drawn) [CBK267546]	83.1%
COc1cccc(-c2nnc(SCc3nc4ccccc4[nH]3)n2N)c1 [CBK267549]	91%
Nn1c(SCc2ccc(Br)cc2)nnc1-c1ccccn1 [CBK267552]	89.5%
Nn1c(SCc2ccc(C(=O)O)cc2)nnc1-c1ccccn1 [CBK267553]	90.8%
Cc1sc2nc(SCc3nc4ccccc4[nH]3)n(Cc3ccco3)c(=O)c2c1C [CBK267554]	112%
Clc1ccc(-n2c(SCc3nc4ccccc4[nH]3)nnc2-c2ccncc2)cc1 [CBK267557]	100%
COc1ccc(-n2c(SCc3nc4ccccc4[nH]3)nc3sc4c(c3c2=O)CCCC4)cc1 [CBK267558]	100%
O=C(O)c1ccc(CSc2nnc(-c3ccncc3)n2-c2ccc(Br)cc2)cc1 [CBK267559]	84.9%

Structure (SMILES)	viability at 28.5 h, 10 µM
COc1ccc(NC(=O)CC2Nc3cccc4cccc(c34)NC2=O)cc1 (stereo not drawn) [CBK267561]	93.1%
Cn1c(=O)n(C)c2cc(S(=O)(=O)NCCC(=O)O)ccc21 [CBK267565]	105%
O=C(CSc1nnc(SCc2cccc3ccccc23)s1)Nc1ccc(F)c(Cl)c1 [CBK267574]	92.1%
O=C(CSc1nnc(SCc2cccc3ccccc23)s1)c1ccc2c(c1)OCO2 [CBK267576]	100%
CCc1cccc(C)c1NC(=O)CSc1nnc(-c2cccnc2)n1C [CBK267582]	88.4%
Cn1c(SCC(=O)Nc2c(F)cc(F)cc2Br)nnc1-c1cccnc1 [CBK267583]	90.8%
Cn1c(SCC(=O)Nc2c(F)cc(F)cc2Br)nnc1-c1cnccn1 [CBK267584]	97.6%
O=[N+]([O-])c1ccc(CSc2nnc(-c3cnccn3)n2Cc2ccco2)cc1 [CBK267585]	100%
O=[N+]([O-])c1ccc(CSc2nnc(-c3cccs3)n2Cc2ccco2)cc1 [CBK267588]	86.6%
O=C(CSc1nnc(-c2ccccc2F)n1-c1ccccc1)Nc1ccc2cn[nH]c2c1 [CBK267591]	81.9%
COc1ccc([N+](=O)[O-])cc1NC(=O)Nc1ccc(Cl)c(Cl)c1 [CBK267593]	99.5%
O=C(CCN1C(=O)c2ccccc2C1=O)NC(=S)Nc1ccccc1 [CBK267595]	108%
CCOC(=O)c1cc(CC)sc1NC(=O)c1cc2ccccc2o1 [CBK267596]	88.3%
O=C(CSc1nnc(-c2cccnc2)n1-c1cccc(C(F)(F)F)c1)c1ccc(F)cc1 [CBK267599]	87.9%
CCOC(=O)c1ccc(Nc2nnc3nc(C)cc(C)n23)cc1 [CBK267600]	93.1%
Cc1cc(C)n2c(Nc3ccc(S(N)(=O)=O)cc3)nnc2n1 [CBK267601]	110%
CS(=O)(=O)N1CCN(c2ccccc2NC(=O)Cc2ccc(Cl)cc2)CC1 [CBK267605]	94.9%
CCN1CCN(c2c(Cl)cccc2NC(=O)CSc2ccc(Cl)cc2)CC1 [CBK267606]	90.7%
CC(C)C(=O)N1CCN(c2ccccc2NC(=O)c2ccc(N3CCCCC3)c([N+](=O)[O-])c2)CC1 [CBK267609]	100%
Cc1ccc2[nH]c(/C(C#N)=C\c3cc(C)n(-c4ccc(S(N)(=O)=O)cc4)c3C)nc2c1 [CBK267611]	105%
COc1ccc(S(=O)(=O)N2CCC(C(=O)NCc3cccnc3)CC2)cc1Cl [CBK267613]	95.2%
